Test system: 292921-168-R-J2-PDC complex spheroid growth
Test: Anticancer human tumor 292921-168-R-J2-PDC patient-derived pancreatic carcinoma cell line growth inhibition [AhR]
Settings: for IC50: curve of first compound; for viability, T/C: stronger effect = lower value
Procedure, shortened: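 Complex tumor spheroids co-cultured with HUVEC and human MSC stroma; AhR antagonists tested in combination with standard-of-care and investigational agents. Top concentration at or near clinical Cmax (else 10 microM), half-log dilutions; growth expressed as percent test/control.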
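Further: spheroids exposed to compounds for seven days after three days of growth.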

Q: How did the IC50 (second compound 0.1 µM) turn out when `CC(C)c1c(-c2ccccc2)nc2c(C#N)c[nH]n2c1=O` + Cc1ccccc1N=Nc1ccc(NC(=O)c2ccnn2C)c(C)c1 was run?
A: > 10 µM

Q: What about the IC50 (second compound 0.316 µM) of the same compound?
A: > 10 µM

Q: What about the IC50 (second compound 1 µM) of the same compound?
A: > 10 µM

Q: And the IC50 (second compound 3.16 µM)?
A: > 10 µM

Q: And the IC50 (second compound 10 µM)?
A: > 10 µM

Q: What about the viability, T/C (second compound 0.1 µM, first compound 0.0316 µM) of the same compound?
A: 86.5%

Q: What about the viability, T/C (second compound 0.1 µM, first compound 0.1 µM) of the same compound?
A: 86%

Q: And the viability, T/C (second compound 0.1 µM, first compound 0.316 µM)?
A: 91.9%

Q: What about the viability, T/C (second compound 0.1 µM, first compound 1 µM) of the same compound?
A: 88.7%

Q: What about the viability, T/C (second compound 0.1 µM, first compound 3.16 µM) of the same compound?
A: 89.8%

Q: And the viability, T/C (second compound 0.1 µM, first compound 10 µM)?
A: 96.5%

Q: And the viability, T/C (second compound 0.316 µM, first compound 0.0316 µM)?
A: 79.3%

Q: And the viability, T/C (second compound 0.316 µM, first compound 0.1 µM)?
A: 85.2%

Q: And the viability, T/C (second compound 0.316 µM, first compound 0.316 µM)?
A: 86.1%

Q: What about the viability, T/C (second compound 0.316 µM, first compound 1 µM) of the same compound?
A: 81.2%

Q: What about the viability, T/C (second compound 0.316 µM, first compound 3.16 µM) of the same compound?
A: 94%

Q: And the viability, T/C (second compound 0.316 µM, first compound 10 µM)?
A: 85.9%

Q: What about the viability, T/C (second compound 1 µM, first compound 0.0316 µM) of the same compound?
A: 84.2%

Q: What about the viability, T/C (second compound 1 µM, first compound 0.1 µM) of the same compound?
A: 86.2%

Q: What about the viability, T/C (second compound 1 µM, first compound 0.316 µM) of the same compound?
A: 80.8%

Q: What about the viability, T/C (second compound 1 µM, first compound 1 µM) of the same compound?
A: 87%

Q: What about the viability, T/C (second compound 1 µM, first compound 3.16 µM) of the same compound?
A: 83.6%

Q: What about the viability, T/C (second compound 1 µM, first compound 10 µM) of the same compound?
A: 81.8%

Q: And the viability, T/C (second compound 3.16 µM, first compound 0.0316 µM)?
A: 78.6%

Q: And the viability, T/C (second compound 3.16 µM, first compound 0.1 µM)?
A: 72.3%

Q: And the viability, T/C (second compound 3.16 µM, first compound 0.316 µM)?
A: 78.8%

Q: And the viability, T/C (second compound 3.16 µM, first compound 1 µM)?
A: 76.8%

Q: What about the viability, T/C (second compound 3.16 µM, first compound 3.16 µM) of the same compound?
A: 74%

Q: What about the viability, T/C (second compound 3.16 µM, first compound 10 µM) of the same compound?
A: 65.8%

Q: And the viability, T/C (second compound 10 µM, first compound 0.0316 µM)?
A: 58.1%

Q: What about the viability, T/C (second compound 10 µM, first compound 0.1 µM) of the same compound?
A: 61.2%

Q: What about the viability, T/C (second compound 10 µM, first compound 0.316 µM) of the same compound?
A: 58.6%

Q: What about the viability, T/C (second compound 10 µM, first compound 1 µM) of the same compound?
A: 63.9%

Q: What about the viability, T/C (second compound 10 µM, first compound 3.16 µM) of the same compound?
A: 65%

Q: What about the viability, T/C (second compound 10 µM, first compound 10 µM) of the same compound?
A: 50.3%

From PubChem BioAssay AID1918994 (Molecular Pharmacology Branch, DTP, NCI, 2023)
